Target: SF3B1^K700E (Homo sapiens, UniProt O75533+Q7RTV0, K700E)
Experiment: In vitro splicing assay (IVS), Ad2 pre-mRNA substrate, nuclear extracts
Assay type: biochemical
Parameters: expressed in transfected cells; host or cells: nuclear extract of 293F cells transfected with pFLAG-CMV-2-SF3B1 K700E (the same assay was also run with Nalm-6 SF3B1 K700E nuclear extract)
Conditions: nuclear extracts from Nalm-6 SF3B1^K700E cells or 293F cells expressing Flag-tag SF3B1^K700E
Protocol: E7107 is a small-molecule compound that inhibits splicing by targeting the U2 snRNP-associated complex SF3B (Kotake, Y. et al. “Splicing factor SF3b as a target of the antitumor natural product pladienolide.” Nat Chem Biol 3, 570-575, doi:10.1038/nchembio.2007.16 [2007]).
Nuclear extracts were prepared from 293F cells transfected with pFLAG-CMV-2-SF3B1 plasmids, or from isogenic Nalm-6 cells (SBH Sciences). The plasmids were generated by cloning the mxSF3B1 gene into the HindIII and KpnI sites of pFLAG-CMV2 (Sigma), and the mutations mxSF3B1^K700E, mxsF3B1^R1074H and mxSF3B1^K700E-R1074H were introduced using […]. Cell pellets were resuspended in hypotonic buffer (10 mM HEPES pH 7.9, 1.5 mM MgCl2, 10 mM KCl, 0.2 mM PMSF, and 0.5 mM DTT; for Nalm-6 cells, 40 mM KCl was used). The suspension was brought up to a total of five packed cell volumes (PCV). After centrifugation, the supernatant was discarded, and the cells were brought up to 3 PCV with hypotonic buffer, and incubated on ice for 10 minutes. Cells were lysed using a dounce homogenizer and then centrifuged. […] Protein concentration was determined using NanoDrop 8000 UV-Vis spectrophotometer (Thermo Scientific). […]

**Q.** For `CC[C@H](O)[C@@H](C)[C@H]1O[C@@H]1C[C@@](C)(O)/C=C/C=C(\C)[C@H]1OC(=O)C[C@H](O)CC[C@@](C)(O)[C@@H](OC(=O)N2CCN(C3CCCCCC3)CC2)/C=C/[C@@H]1C` [Compound E7107], which “inhibition of splicing of Ad2 pre-mRNA in nuclear extracts” value is on record?
**A.** able to inhibit splicing
